{"source": "paper PMC12656565", "about": "“In Vitro and Ultrastructural Evaluation of the Cytotoxic and Antileishmanial Activities of Thiosemicarbazone Compounds Against Promastigotes and Axenic Amastigotes of Leishmania infantum” (Tropical Medicine and Infectious Disease, 2025)", "key": {"[1]": {"test_system": "L. infantum promastigote cells", "assay": "Mitochondrial membrane potential (Rhodamine 123, flow cytometry)", "assay_type": "cell-based, Leishmania infantum", "method": "To evaluate the effects of compounds on the mitochondrial membrane potential (ΔΨm) of Leishmania infantum, the cationic probe Rhodamine 123 (Rod 123) was used through quantitative flow cytometry analysis. […] After incubation, cells were centrifuged at 3000× g for 5 min, and supernatants discarded. […] Hydrogen peroxide (H2O2) at 1 μM was used as positive control, previously described in the literature as an inducer of mitochondrial potential loss. Cells were analyzed by flow cytometry on the FACSCalibur equipment (Becton & Dickinson, San José, CA, USA), with excitation at 488 nm and detection at 505/534 nm. Fifty thousand events per sample were acquired. Data were expressed as percentage of cells stained with Rhodamine 123 for each tested condition. Fluorescence variation was quantified by Variation Index (VI), calculated by the equation: VI = (MT − MC)/MC, where MT corresponds to the median fluorescence of treated cells and MC to the median of control cells (untreated)."}, "J774.A1 macrophages": {"test_system": "J774.A1 macrophages", "parameters": "method as in PMID 33590474", "details": "highest concentration tested 75 µM, previously determined in collaboration with Jacob et al., ref [20]; cited from earlier work"}, "[2]": {"test_system": "Leishmania infantum promastigote forms (MHOM/BR/BH46)", "assay": "In vitro leishmanicidal activity against promastigotes (Neubauer chamber counting)", "assay_type": "cell-based", "details": "for IC50 / inhibition at 20 µM: Leishmania infantum; for IC50: 72 h, L. infantum promastigotes, linear regression; for inhibition at 20 µM: lowest concentration tested in the promastigote series (20–400 µM)", "method": "For this study, the Leishmania infantum strain MHOM/BR/BH46 was used. It was maintained by cryopreservation in liquid nitrogen, using a preservation solution containing 10% dimethyl sulfoxide (DMSO) and 90% fetal bovine serum (FBS). For the experiments, the strain was reactivated and maintained in continuous culture in modified Schneider’s Drosophila medium, supplemented with 10% heat-inactivated fetal bovine serum (FBS), at a temperature of 26 °C, with subcultures performed every 72 h. The promastigote form was used for the in vitro assays, with growth observed and monitored through parasite counting using a Neubauer chamber (iNCYTO CChip DHC-N01, Cheonan-Si, Republic of Korea).\nThe in vitro leishmanicidal activity of compounds LT-70, LT-73, LT-75, LT-89, and amphotericin B was determined as described by Aliança et al., with adaptations. Promastigote forms of L. infantum (MHOM/BR/BH46) were maintained in Schneider’s medium supplemented with 10% fetal bovine serum (FBS), incubated at 26 °C. For experiments, parasites were subcultured and grown for 72 h until reaching stationary phase. Subsequently, they were adjusted to a concentration of 1 × 10^6 parasites/mL. Cultures were then incubated in the presence of the tested compounds (20–400 µM) and Amphotericin B was tested from 0.01 to 1.0 µM in preliminary range-finding assays, confirming an IC50 of 0.04 µM, both prepared in DMSO (final DMSO concentration < 1%), as well as a control containing only the diluent. Analyses were performed in technical triplicate and biological duplicate. Cultures were maintained at 26 °C for 72 h, with daily parasite counts performed using a Neubauer chamber. The median inhibitory concentration (IC50) was determined after 72 h by linear regression using SPSS 25.0 software for Mac. All assays were performed in 24-well flat-bottom plates (2 mL final volume per well), with parasite inoculum verified by Neubauer counting chamber. The compounds LT-73 and LT-75 were selected based on their best leishmanicidal performance and respective selectivity index (SI), calculated as the ratio between the cytotoxic concentration for 50% of host cells (CC50) and the IC50 obtained for parasites. […] IC50 and CC50 values were obtained by linear regression using […]. This method has been validated in our previous thiosemicarbazone publications. Each assay was conducted in triplicate across two independent biological experiments performed on separate days to ensure reproducibility and minimize batch effects. MTT was selected for consistency with the validated thiosemicarbazone protocol by Jacob et al., ensuring methodological coherence with prior data."}, "[3]": {"test_system": "axenic amastigote forms of Leishmania amazonensis", "parameters": "method as in ref [22] Oliveira et al.", "details": "ref [22] Oliveira et al.; cited from earlier work"}, "Leishmania infantum": {"test_system": "Leishmania infantum", "parameters": "method as in PMID 35861942, PMID 14982775", "details": "against Leishmania infantum, similar in vitro conditions; ref [25],[29]; cited from earlier work"}}, "note": "Peptide text beside a SMILES is read from it. * marks the point of attachment. Cbz = O=C(OCc1ccccc1)*", "data": [{"smiles": "OO", "note": "[Hydrogen Peroxide (H2O2), Hydrogen peroxide, reference compound]", "values": [{"measurement": "Mean (Rho 123 fluorescence)", "setting": "[1]; positive control, H2O2 at 1 μM", "result": "581 ± 35"}, {"measurement": "Variation (Variation Index, VI = (MT − MC)/MC)", "setting": "[1]; positive control, H2O2 at 1 μM", "result": "−0.18 ± 0.08"}, {"measurement": "Variability Index (VI), range", "setting": "[1]; range over the tested concentrations (1× and 2× IC50; H2O2 control)", "result": "−0.018 to −0.73"}]}, {"smiles": "N#Cc1ccc2[nH]cc(/C=N/NC(=S)Nc3ccccc3)c2c1", "note": "[LT-70]", "values": [{"measurement": "CC50", "setting": "J774.A1 macrophages", "result": "64 ± 5", "unit": "µM"}, {"measurement": "IC50", "setting": "[2]", "result": "< 20", "unit": "µM"}, {"measurement": "inhibition at 20 µM", "setting": "[2]", "result": 100, "unit": "%"}]}, {"smiles": "CC(C)[C@H](NC(=O)OCc1ccccc1)C(=O)N[C@H](C=O)Cc1ccccc1", "note": "[MDL28170] (Cbz-Val-Phe-aldehyde)", "values": [{"measurement": "IC50", "setting": "[3]", "result": 13.5, "unit": "µM"}]}, {"smiles": "C=CCNC(=S)N/N=C\\c1c[nH]c2c(C)cccc12", "note": "[LT-89]", "values": [{"measurement": "CC50", "setting": "J774.A1 macrophages", "result": "60 ± 4", "unit": "µM"}, {"measurement": "SI (CC50/IC50)", "setting": "[2]; CC50 J774 macrophages / IC50 promastigotes", "result": 4.3}, {"measurement": "IC50", "setting": "[2]", "result": "< 20", "unit": "µM"}, {"measurement": "inhibition at 20 µM", "setting": "[2]", "result": 100, "unit": "%"}]}, {"smiles": "CCCCCCCCCCCCCCCCOP(=O)([O-])OCC[N+](C)(C)C", "note": "[miltefosine]", "values": [{"measurement": "IC50", "setting": "Leishmania infantum", "result": "8 to 12", "unit": "µM"}]}]}
